Where two headings read alike, the source gives them in different places.

One test concerns the target T1, PPARγ LBD (Homo sapiens, UniProt P37231).
T1 construct: expressed in transfected cells; host or cells: COS-7
T1 sequence (P37231 238-503 limits assumed): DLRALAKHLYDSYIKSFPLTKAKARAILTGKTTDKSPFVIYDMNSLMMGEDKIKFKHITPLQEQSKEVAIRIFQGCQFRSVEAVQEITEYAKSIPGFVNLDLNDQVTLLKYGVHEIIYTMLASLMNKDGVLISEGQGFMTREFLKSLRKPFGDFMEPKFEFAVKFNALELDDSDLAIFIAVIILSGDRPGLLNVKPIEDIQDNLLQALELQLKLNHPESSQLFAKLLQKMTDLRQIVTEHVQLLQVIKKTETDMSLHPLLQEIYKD
Kind of test: LBD-hPPARs transactivation assay (GAL4-LBD luciferase reporter in COS-7 cells). It is filed as cell-based. Conditions: 48 h. From the text:
LBD-hPPARs Transactivation Assay
COS-7 cells were cultivated in 24-well plates and transfected with the pFACMV plasmids that encode the chimeric proteins containing the GAL4 DNA binding domain fused to the PPARγ LBD. The reporter plasmid for the foregoing constructions was pFR-Luc, which contains five repetitions of the GAL4-response element in front of a promoter that controls the transcription of the luciferase gene. Lipofectamine was used as a transfection agent.
The plasmids of the chimeric receptors and the reporter gene were inserted in the cells by transitory transfection in COS-7 cells in culture.
A general note: A reporter such as luciferase makes a cellular process visible.

The target of the next test is T2, GST-hPPARγ2 (Homo sapiens, UniProt P37231).
T2 construct: the complete cDNA of the […] human PPARs were cloned into pGEX4T2; made in house; host or cells: Escherichia coli BL21 (DE3)
T2 sequence (P37231 1-505): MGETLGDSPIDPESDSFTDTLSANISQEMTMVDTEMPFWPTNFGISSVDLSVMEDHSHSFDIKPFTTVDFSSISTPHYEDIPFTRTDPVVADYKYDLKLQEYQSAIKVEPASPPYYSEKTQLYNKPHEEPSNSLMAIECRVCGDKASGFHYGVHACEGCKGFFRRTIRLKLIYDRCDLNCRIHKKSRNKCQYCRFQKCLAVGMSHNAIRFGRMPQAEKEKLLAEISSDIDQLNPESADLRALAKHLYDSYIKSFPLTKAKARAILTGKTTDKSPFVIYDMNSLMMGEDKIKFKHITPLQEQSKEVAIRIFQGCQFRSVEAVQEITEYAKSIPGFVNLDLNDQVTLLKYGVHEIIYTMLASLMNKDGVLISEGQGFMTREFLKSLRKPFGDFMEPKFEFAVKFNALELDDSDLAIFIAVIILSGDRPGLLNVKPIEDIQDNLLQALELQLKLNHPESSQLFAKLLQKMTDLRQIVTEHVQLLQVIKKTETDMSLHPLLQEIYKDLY
The test is described as follows: Assay of binding to the PPARγ2 ([3H]BRL-49853 displacement). As for the experimental part:
Assay of Binding to the PPARγ2
The cDNA encoding for the open reading frame of the hPPARγ2 is amplified by PCR (polymerase chain reaction) and inserted in the plasmid pGEX-4T-2.
The reaction mixture was transferred to a Multiscreen Durapore (Millipore) microplate containing glutathione-Sepharose 4B in every well. The reaction mixture was left to incubate with the resin during 10 min, and then centrifuged at 735 g during 2 min. To dissociate the receptor bound to the resin, reduced glutathione 10 mM is added and incubated during 10 min. The receptor was eluted by centrifugation. Then, 800 μL of scintillation liquid were added to the elution and the contained radioactivity was quantified by liquid scintillation spectroscopy (Microbeta Wallac, Perkin Elmer).

The target in the next test is T3, GST-hPPARα (Homo sapiens, UniProt Q07869).
T3 construct: the complete cDNA of the […] human PPARs were cloned into pGEX4T2; made in house; host or cells: Escherichia coli BL21 (DE3)
T3 sequence (Q07869 1-468): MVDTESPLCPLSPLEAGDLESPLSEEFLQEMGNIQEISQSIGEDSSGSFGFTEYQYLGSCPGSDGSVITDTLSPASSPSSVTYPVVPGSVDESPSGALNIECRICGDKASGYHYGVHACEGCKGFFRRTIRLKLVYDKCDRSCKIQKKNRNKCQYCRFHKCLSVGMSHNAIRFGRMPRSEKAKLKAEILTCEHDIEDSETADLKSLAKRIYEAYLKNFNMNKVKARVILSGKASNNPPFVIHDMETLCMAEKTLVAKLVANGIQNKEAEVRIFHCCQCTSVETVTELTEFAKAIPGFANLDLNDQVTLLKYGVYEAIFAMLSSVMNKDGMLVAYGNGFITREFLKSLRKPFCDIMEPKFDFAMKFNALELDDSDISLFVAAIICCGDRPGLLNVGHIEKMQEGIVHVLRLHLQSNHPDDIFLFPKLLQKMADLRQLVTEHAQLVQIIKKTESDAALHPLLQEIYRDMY
Kind of test: GST-hPPARα binding ([3H]-GW2433 displacement). From the text: Cloning of Human PPARα, PPARδ and PPARγ2
The human PPARs cDNAs were amplified through RT-PCR. For hPPARα, RNA was obtained from HepG2 cells treated with linoleic acid; for h PPARδ, RNA was obtained from untreated HepG2 cells; for hPPARγ2, RNA was obtained from human white adipose tissue. Each amplified fragment was cloned into pBluescript (Stratagene®) and sequenced. One clone for each construction was selected and used as template for further subcloning and PCR amplifications.
GST-Fused Protein Construction
To generate these chimeric proteins, the complete cDNA of the […] human PPARs were cloned into pGEX4T2 (Amersham Biosciences). The fragment was obtained from the pBluescript-cDNAs clones digested with endonucleases. To assess the plasmid identity and to ensure the in-phase cloning of the proteins, pGEXs constructions were sequenced. […] Receptor purity was visualized by SDS-PAGE and protein content was determined by Bradford method. […]
Using 96-well culture plates, PPARα or PPARδ (5 μg) were diluted to a total volume of 100 μL with buffer consisting of 50 mM HEPES (pH: 7.0), 50 mM KCl, 5 mM EDTA and 10 mM DTT, in the presence of [3H]-GW2433 (100 and 50 nM for PPARα and PPARδ, respectively). […] Eluted radioactivity was quantitated by liquid scintillation counting in a Microbeta counter (Perkin Elmer).

Where [1] appears, read: Table 19, GST-hPPARγ2, [3H]BRL-49853 100 nM, read-out: Affinity PPARγ(1).

With `O=C(N[C@@H](Cc1ccc(OCc2ccccc2)cc1)C(=O)O)c1ccc(OCc2ccccc2-c2ccccc2)cc1` [Example 184, (2S)-3-(4-Benzyloxyphenyl)-2-[4-(biphenyl-2-ylmethoxy)benzoylamino]propionic acid], the “Functional activity PPARγ” value at PPARγ LBD is on record as “Antagonist”. Moreover, the Ki at GST-hPPARγ2 was less than 1 µM; at GST-hPPARα it was greater than 3 µM.
As for `O=C(N[C@@H](Cc1ccc(OCc2ccccc2)cc1)C(=O)O)c1cccc(OCc2ccc(-c3ccccc3)cc2)c1` [Example 187, (2S)-3-(4-Benzyloxyphenyl)-2-[3-(biphenyl-4-ylmethoxy)benzoylamino]propionic acid], the “Functional activity PPARγ” value at PPARγ LBD is reported as “Agonist”. Further, on GST-hPPARγ2 (setting [1]), the Ki is less than 1 µM.
For the compound `O=C(N[C@@H](Cc1ccc(OCc2ccccc2)cc1)C(=O)O)c1cccc(OCc2cccc(Oc3ccccc3)c2)c1` [Example 188, (2S)-3-(4-Benzyloxyphenyl)-2-[3-(3-phenoxybenzyloxy)benzoylamino]propionic acid], at PPARγ LBD, the “Functional activity PPARγ” value is listed as “Partial agonist”. The Ki on GST-hPPARγ2 (setting [1]) is less than 1 µM.
Taken in the same sequence, the figures for `Cc1nc2ccccc2nc1OCCOc1ccc(C(=O)N[C@@H](Cc2ccc(F)cc2)C(=O)O)cc1` [Example 192, (2S)-3-(4-Fluorophenyl)-2-{4-[2-(3-methylquinoxalin-2-yloxy)ethoxy]benzoylamino}propionic acid] were “Partial agonist” and greater than 3 µM.
Taken in the same sequence, the figures for `CCCCc1ccc(COc2ccc(C(=O)N[C@@H](CC3CCCCC3)C(=O)O)cc2)cc1` [Example 210, (2S)-2-[4-(4-Butylbenzyloxy)benzoylamino]-3-cyclohexylpropionic acid] were “Agonist” and less than 1 µM.
In the same order, the values of `CCCCc1ccc(COc2ccc(C(=O)N(CCC(=O)O)Cc3cccc(OCc4ccccc4)c3)cc2)cc1` [Example 218, 3-{(3-Benzyloxybenzyl)-[4-(4-butylbenzyloxy)benzoyl]amino}propionic acid] are “Antagonist” and less than 1 µM.
With `CCCCOc1ccc(COc2ccc(C(=O)N[C@@H](CC3CCCCC3)C(=O)O)cc2)cc1` [Example 237, (2S)-2-[4-(4-Butoxybenzyloxy)benzoylamino]-3-cyclohexylpropionic acid], at PPARγ LBD, the “Functional activity PPARγ” value was “Partial agonist”. Further, the Ki at GST-hPPARγ2 (setting [1]) is less than 1 µM.
Taken in the same sequence, the figures for `O=C(N[C@@H](Cc1ccc(OCc2ccccc2)cc1)C(=O)O)c1ccc(OCc2ccccc2Br)cc1` [Example 238, (2S)-3-(4-Benzyloxyphenyl)-2-[4-(2-bromobenzyloxy)benzoylamino]propionic acid] were “Antagonist” and less than 1 µM.
Regarding `Cc1ccccc1COc1ccc(C(=O)N[C@@H](Cc2ccc(OCc3ccccc3)cc2)C(=O)O)cc1` [Example 243, (2S)-3-(4-Benzyloxyphenyl)-2-[4-(2-methylbenzyloxy)benzoylamino]propionic acid], the “Functional activity PPARγ” value on PPARγ LBD is reported as “Antagonist”. For the same compound, the Ki on GST-hPPARγ2 (setting [1]) was less than 1 µM.
In the same order, the values of `Cc1nc2ccccc2nc1OCCOc1ccc(C(=O)N[C@@H](Cc2ccc(OCc3ccccc3)cc2)C(=O)N(C)C)cc1` [Example 267, N-[(1S)-2-(4-Benzyloxyphenyl)-1-dimethylcarbamoylethyl]-4-[2-(3-methylquinoxalin-2-yloxy)ethoxy]benzamide] are “Partial agonist” and 1 to 3 µM.

The values above are taken from patent US20060160894A1, “Benzamides as ppar modulators” (LABORATORIOS S.A.L.V.A.T.,S.A., priority 2003, published 2006).
